Each structure is given as a SMILES string.

Here are results for three compounds from US20060233870A1, “Compositions and methods for drug delivery” (Noven Pharmaceuticals, Inc., priority 1999, published 2006).

A short description of series [1]: solubility of the drug in the acrylic-based polymer dermal composition.

Take `Clc1cccc(Cl)c1N=C1NCCN1` [clonidine]: the clonidine flux result (increasing amount of hydroxy functional acrylic (DT 87-2287) versus carboxy functional DT 87-2852, FIG. 3, Examples 9-11 and Comparative Example 3 plotted) was “increases the flux of the clonidine”. The “solubility of clonidine in the acrylic” value in series [1] (in hydroxy functional acrylic compared with carboxy functional acrylic) is “lower solubility”.
As to `O=C(CCCN1CCC(O)(c2ccc(Cl)cc2)CC1)c1ccc(F)cc1` [haloperidol], the cumulative haloperidol flux result (increasing amount of non-functional acrylic (HRJ 4483) versus carboxy functional DT 87-2196, FIG. 1, Examples 2 and 4 and Comparative Example 1 plotted) was “flux of the haloperidol across the skin increases”. The “solubility of the haloperidol in the dermal composition” value in series [1] (increasing amount of non-functional acrylic in the dermal composition) is “reduces the solubility of the haloperidol”.
`CN1CCCC1c1cccnc1` (centres unmarked) [nicotine]: for the setting “increasing amount of non-functional acrylic (HRJ 4483) versus carboxy functional DT 87-2852, FIG. 2, Examples 5-7 and Comparative Example 2 plotted”, the nicotine flux result is reported as “increasing flux”.
